The target in one test is T1, transthyretin (L55P-TTR) (Homo sapiens, UniProt P02766, L75P).
T1 construct: recombinant L55P-TTR, homotetramer
Description: ligand fluorescence titration (blue shift of OleA emission); noisier, and no stabilization in urea unfolding. The test is classed as binding.

In the next test the target is T2, transthyretin (wt-TTR) (Homo sapiens, UniProt P02766).
T2 construct: recombinant wt-TTR, homotetramer
The test can be described thus: ligand fluorescence titration (blue shift of OleA emission, fitted to a binding equilibrium); urea unfolding shows stabilization.

Broadly, the Kd is a measure of binding affinity in units of concentration.

Take `C/C=C1/C(O)OC=C(C(=O)OC)[C@H]1CC(=O)OCCc1ccc(O)c(O)c1` (mixture of isomers) [OleA, oleuropein aglycone]: the Kd at transthyretin (L55P-TTR) was 3.12 ± 0.62 µM; on transthyretin (wt-TTR), 3.23 ± 0.32 µM.
